From article PMC10058894, “Bioactive C21 Steroidal Glycosides from Euphorbia kansui Promoted HepG2 Cell Apoptosis via the Degradation of ATP1A1 and Inhibited Macrophage Polarization under Co-Cultivation” (Molecules, 2023)

Experiments:
ROS in HepG2 cells = assay: H2DCFDA staining of ROS; format: cell-based
Description: The occurrence of apoptosis is characterized by morphological events and the activation of apoptotic signaling pathways. Herein, we detected the apoptosis events of HepG2 cells by fluorescence staining and Western blotting. […] Apoptosis-related proteins, such as Bax, cleaved caspase 3, and cleaved caspase 8, were increased, and Bcl-2 was decreased (Figure 2B).
Figure 2 Compound 5 promoted the apoptosis of HepG2 cells. (A) Fluorescence image of cell apoptosis in HepG2 cells. The cells were double stained with Annexin V and PI. Early apoptotic cells were stained with Annexin V, and late apoptotic cells were stained with PI. (B) HepG2 cells were treated with Compound 5 (25 μmol∙L^−1) for 24 h, and the protein expression was detected by western blot. (C) Fluorescence image of ROS in HepG2 cells. (D) HepG2 cells were treated with Compound 5 (25 μmol∙L^−1) for 24 h, and autophagy-related protein expression and AKT/mTOR were detected by western blotting. Data are expressed as the mean ± standard deviation. * p < 0.05, ** p < 0.01, *** p < 0.001 vs. the control group.

ATP1A1 = ATP1A1 (Homo sapiens, UniProt P05023); assay: CETSA binding assay; parameters: we focused on the regulatory effect of 5 on ATP1A1 in HepG2 cells; endogenous in cells; host or cells: HepG2; settings: 50 μmoL−1, western blot
Procedure: Figure 4 Compound 5 promoted the endocytosis and degradation of ATP1A1. (A) HepG2 cells were treated with 12.5 μmol∙L^−1 or 25 μmol∙L^−1 5 for 48 h, and the lysosomal co-localization assay was performed with a confocal laser. (B) Cells exposed to 25 μmol∙L^−1 5 for 12 h or 24 h were detected by fluorescence staining. (C) 5 is depicted in red, and the chains of Na^+, K^+-ATPase α/β/γ are represented by light blue, cyan-blue, and magenta, respectively. The crystallography, atomic coordinates, and structure factors have been deposited in the Protein Data Bank, www.pdb.org (accessed on 1 February 2023) (PDB ID code 3KDP). (D) The CETSA binding assay of ATP1A1 and β-actin in the presence or absence of 5 (50 μmoL^−1) at different temperatures was detected by western blot. The temperature-dependent melting curves and the apparent aggregation temperature were calculated by nonlinear regression. Values represent the mean ± SEM (N = 3 replicates).

HepG2 cells = assay: Fluorescence staining for apoptosis (Hoechst 33342, Annexin V/PI); format: cell-based
Procedure: HepG2 cells (4 × 10^5 cells/well) were incubated in confocal dishes with DMEM for 24 h and then treated with compounds for 48 h. Then, the cells were treated with 0.1% Triton X-100 for 10 min and washed with PBS five times. Finally, the cells were dyed with anti-ATP1A1 at 4 °C overnight. Nuclear staining with DAPI (1 μg∙mL^−1) was added for 7 min in the dark, and the cells were washed. The stained images were captured under a laser scanning confocal microscope (Nikon A1 AIR MP+, Tokyo, Japan). HepG2 cells (5 × 10^5 cells/well) were incubated in 6-well plates in complete DMEM. Cells were treated with compounds for 24 h. Then, the cells were stained with Annexin V/PI for 30 min at 4 °C in the dark, and apoptosis analysis was carried out by laser scanning confocal microscopy.

[1] = tested on: ATP1A1-related AKT and ERK signaling pathways; assay: Western blot of AKT and ERK phosphorylation in HepG2 cells; format: cell-based; settings: 5 at 25 μmol∙L−1, 0~60 min, digitonin 10 nmol∙L−1
Procedure: An Na^+/K^+-ATPase inhibitor (digitonin), AKT inhibitor (MK 2206), and ERK inhibitor (FR 180204) were purchased from Biotech (Beijing, China). These agents were stored at −20 °C, and the cells were preincubated with the inhibitor for 4 h prior to treatment with the compounds. Digitonin, MK 2206, and FR 180204 were used at concentrations of 10, 40, and 200 nmol/L, respectively.
Protein samples were prepared using a RIPA lysis buffer. The concentration of the protein was analyzed using a nucleic acid and protein microanalyzer (Molecular Devices, San Jose, CA, USA). SDS–PAGE was performed to separate the proteins, which were then electrotransferred onto a PVDF membrane. The membrane was incubated with antibodies at 4 °C overnight. Next, the membrane was washed and incubated with an HRP-conjugated secondary antibody (Beyotime, BeiJing, China). Finally, signals were detected by the ECL method (Beyotime, BeiJing, China) and analyzed using ImageJ software.

C[C@H](O)[C@]1(O)CC[C@@]2(O)[C@]1(C)[C@H](OC(=O)/C=C/c1ccccc1)C[C@@H]1[C@@]3(C)CC[C@H](O[C@H]4C[C@H](O)[C@H](O)[C@@H](C)O4)CC3=CC[C@]12O [Compound 5, Cynsaccatol L]
ROS levels (ROS in HepG2 cells): significantly increased | denaturation temperature of ATP1A1 (CETSA) (ATP1A1): higher than that of the control group | nuclear changes (Hoechst 33342 staining) (HepG2 cells): significantly induce nuclear changes | nuclear and cell membrane morphological changes (Annexin V/PI staining) (HepG2 cells; as low as 12.5 μmol∙L−1): significantly induce nuclear and cell membrane morphological changes | phosphorylation of AKT and ERK and expression of ATP1A1 [1]: all decreased
